Tests used:
[1] = tested on: Staphylococcus aureus; assay: Kirby-Bauer disk diffusion growth inhibition, Staphylococcus aureus; format: cell-based; conditions: for Zone of inhibition (mm) against S. aureus: Example 35; for Active against: Table 1 summary, S. aureus
Description: (§1) The compounds disclosed herein were tested for growth inhibition against four strains of bacteria: Escherichia coli, Staphylococcus aureus, methicillin-resistant Staphylococcus aureus, and Bacillus subtilis. […] They represent […]. E. coli is a gram-negative, non-spore forming, rod-shaped, opportunistic pathogen that resides in the human digestive tract. S. aureus is a gram positive coccus, is usually found morphologically as a […], and is an opportunistic human pathogen, often residing on or in the skin. B. subtilis is a gram positive spore-forming rod. Its native environment is the soil. The chemicals were tested for growth-inhibition of the bacteria by the Kirby-Bauer method. See, e.g., Microbiology, third edition; Lansing M. Prescott, John P. Harley, and Donald A. Klein; Wm. C. Brown Publishers.
(§2) Mueller-Hinton agar (Difco Lab, Michigan) was prepared according to the manufacturer's directions, and 20 ml was dispensed in each sterile petri dish. Sterile nutrient broth (Difco Lab, Michigan) was also prepared according to the manufacturer's directions.
(§3) Bacteria were grown in liquid nutrient broth for 18 hours at 37° C. until they were turbid.
(§4) An aliquot of 0.5 ml of cultured bacteria was aseptically transferred to the surface of a Mueller-Hinton agar plat, and spread using a cotton-tipped swab. Plates were then allowed to dry for 5 minutes. Then a 10 mm diameter filter paper disk impregnated with the test chemical was placed with sterile forceps on the plate. The disks were impregnated with 100 μl of a solution of the test compound in DMSO or in water, at the indicated concentrations in Table 1.
(§5) The zones of inhibition were measured after 18 hours growth at 37° C. Tests were done in triplicate.
(§6) Additional compounds were tested for activity against E. coli, laboratory strain S. aureus (not methicillin resistant), and B. subtilis. The compounds were tested by the disk diffusion method, as in Example 1, with application of a 10 mg/mil solution of the test compound in DMSO.
(§7) Derivatives of lupeol were tested for inhibition of bacterial growth using the Kirby-Bauer disk diffusion method and by growth in liquid culture. For the disk diffusion method, compounds were dissolved in DMSO and 100 μl was added to the 10 mm filter paper disk. The amount of compound applied to the disk varied. The amount applied for each compound was as follows: lupeol (50 μg), lupeol-3-maleate (15 μg), lupeol-3-thiodiglycolate (15 μg), lupeol-3-dimethyl succinate (60 μg), lupeol-3-phosphate (30 μg), lupenone (50 μg), lupenon-3-oxime (50 μg), lupeol-3-amine (50 μg), lupenon-1,2-ene-2-ol (50 μg). In liquid culture, the compounds were dissolved in DMSO at 1 mg/ml and then 100 μl was added to 7 ml of sterile broth, along with a 1/200 dilution of freshly grown bacterial liquid culture.

[2] = tested on: Staphylococcus epidemidis; assay: Kirby-Bauer disk diffusion of lupeol derivatives, Staphylococcus epidermidis; format: cell-based
Description: as §7

[3] = tested on: Enterococcus faecalis; assay: Kirby-Bauer disk diffusion of lupeol derivatives, Enterococcus faecalis; format: cell-based; conditions: for Active against: Table 1 summary, E. faecalis
Description: as §7

[4] = tested on: Staphylococcus epidermis; assay: Growth in liquid culture, optical density, S. epidermidis; format: cell-based, Staphylococcus epidermidis; conditions: 600 nm, 24 hours growth, test compound at 14 μg per ml; None = 0.07
Description: as §7

[5] = tested on: Staphylococcus aureus; assay: Growth in liquid culture, optical density, S. aureus; format: cell-based; conditions: 600 nm, 24 hours growth, test compound at 14 μg per ml; None = 0.08
Description: as §7

[6] = tested on: Enterococcus faecilis; assay: Growth in liquid culture, optical density, E. faecalis; format: cell-based, Enterococcus faecalis; conditions: 600 nm, 24 hours growth, test compound at 14 μg per ml; None = 0.85
Description: as §7

[7] = tested on: bacteria; assay: Summary statements over the antibacterial assays above; format: cell-based; conditions: for active against at least one strain of bacteria in the assays above: summary list
[8] = tested on: Escherichia coli; assay: Kirby-Bauer disk diffusion growth inhibition, Escherichia coli; format: cell-based; conditions: for sensitivity of E. coli: Example 34, 10 mg/ml in DMSO; for Active against: Table 1 summary, E. coli
Description: as §1, §2, §3, §4, §5, §6

[9] = tested on: Bacillus subtilis; assay: Kirby-Bauer disk diffusion growth inhibition, Bacillus subtilis; format: cell-based
Description: as §1, §2, §3, §4, §5, §6

[10] = 50 μg applied to 10 mm disk in DMSO
[11] = 15 μg applied to 10 mm disk in DMSO
[12] = reference antibiotic, amount on disk not stated
[13] = 1 mg/ml in DMSO, 100 μl on 10 mm disk, 18 hours 37° C.
[14] = 125 ng/ml in water, 100 μl on 10 mm disk, 18 hours 37° C.

## C=C(C)[C@@H]1CC[C@]2(C)CC[C@]3(C)[C@H](CC[C@@H]4[C@@]5(C)CCC(N)C(C)(C)[C@@H]5CC[C@]43C)[C@@H]12 (some centres unmarked) [Lupeol-3-amine]
[1]; [10]
  Zone of inhibition (mm) against S. aureus: 0.3 mm
[1]
  Active against: S. aureus,
[2]; [10]
  Zone of inhibition (mm) against S. epiderm.: 0 mm
[3]; [10]
  Zone of inhibition (mm) against E. faecalis: 0.5 mm
[3]
  Active against: E. faecalis
[4]
  Optical Density of S. epiderm: 0.06
[5]
  Optical Density of S. aureus: 0.06
[6]
  Optical Density of E. faecalis: 0.04
[7]
  active against at least one strain of bacteria in the assays above: active against at least one strain of bacteria

## C=C(C)C1CCC2(C)CCC3(C)C(CCC4C5(C)CCC(OC(=O)C=CC(=O)O)C(C)(C)C5CCC43C)C12 (centres unmarked) [Lupeol-3-maleate]
[1]; [11]
  Zone of inhibition (mm) against S. aureus: 0.4 mm
[1]
  Active against: S. aureus,
[2]; [11]
  Zone of inhibition (mm) against S. epiderm.: 0.5 mm
[2]; Example 35, disk diffusion and liquid growth
  activity against S. epidermidis: active
[2]; Table 1 summary, S. epidermidis
  Active against: S. epidermidis,
[3]; [11]
  Zone of inhibition (mm) against E. faecalis: 1.15 mm
[3]
  Active against: E. faecalis
[4]
  Optical Density of S. epiderm: 0.04
[5]
  Optical Density of S. aureus: 0.06
[6]
  Optical Density of E. faecalis: 0.03
[7]
  active against at least one strain of bacteria in the assays above: active against at least one strain of bacteria

## C=C(C)[C@@H]1CC[C@]2(C)CC[C@]3(C)[C@H](CC[C@@H]4[C@@]5(C)CCC(=O)C(C)(C)[C@@H]5CC[C@]43C)[C@@H]12 [Lupenone]
[1]; [10]
  Zone of inhibition (mm) against S. aureus: 1.25 mm
[1]
  Active against: S. aureus,
[2]; [10]
  Zone of inhibition (mm) against S. epiderm.: 1 mm
[3]; [10]
  Zone of inhibition (mm) against E. faecalis: 0.5 mm
[3]
  Active against: E. faecalis
[4]
  Optical Density of S. epiderm: 0.03
[5]
  Optical Density of S. aureus: 0.04
[6]
  Optical Density of E. faecalis: 0.04
[7]; S. aureus, S. epidermidis, E. faecalis, disk diffusion and liquid growth
  overall activity in Example 35: excellent activity
[7]
  active against at least one strain of bacteria in the assays above: active against at least one strain of bacteria

## CC1(C)S[C@@H]2[C@H](NC(=O)[C@H](N)c3ccccc3)C(=O)N2[C@H]1C(=O)O [Ampicillin, reference compound]
[1]; [12]
  Zone of inhibition (mm) against S. aureus: 6.1 mm
[2]; [12]
  Zone of inhibition (mm) against S. epiderm.: 2 mm
[3]; [12]
  Zone of inhibition (mm) against E. faecalis: 5.75 mm

## [H]/N=C(/N)N[C@H]1[C@H](O)[C@@H](O)[C@H](O[C@@H]2O[C@@H](C)[C@](O)(C=O)[C@H]2O[C@@H]2O[C@@H](CO)[C@H](O)[C@@H](O)[C@@H]2NC)[C@@H](N/C(N)=N\[H])[C@@H]1O [Streptomycin, reference compound]
[8]; Escherichia coli, control antibiotic, 10 mcg
  zone of inhibition at 10 µg/disc: 20 mm
[1]; [12]
  Zone of inhibition (mm) against S. aureus: 1.25 mm
[1]; Staphylococcus aureus, control antibiotic, 10 mcg
  zone of inhibition at 10 µg/disc: 15 mm
[1]; disk diffusion assay, laboratory strain (not methicillin resistant)
  amount applied to the disk required for inhibition of S. aureus: 10 µg
[9]; Bacillus subtilis, control antibiotic, 10 mcg
  zone of inhibition at 10 µg/disc: 24 mm
[2]; [12]
  Zone of inhibition (mm) against S. epiderm.: 0 mm
[3]; [12]
  Zone of inhibition (mm) against E. faecalis: 0 mm

## C=C(C)C1CCC2(COC(=O)CCC(=O)O)CC[C@@]3(C)C(CCC4[C@@]5(C)CCC(OC(=O)CCC(=O)O)C(C)(C)C5CC[C@]43C)C12 (some centres unmarked) [Betulin 3,28-disuccinate, Betulin-3,28-disuccinate]
[8]; [13]
  Zone of inhibition Escherichia coli: 0 mm
[1]; [13]
  Zone of inhibition Staphylococcus aureus: 0 mm
[9]; [13]
  Zone of inhibition Bacillus subtilis: 0 mm
[7]
  active against at least one strain of bacteria in the assays above: active against at least one strain of bacteria

## C=C(C)[C@@H]1CC[C@]2(CO)CC[C@]3(C)[C@H](CC[C@@H]4[C@@]5(C)CC[C@H](OC(=O)/C=C/c6ccc(O)c(O)c6)C(C)(C)[C@@H]5CC[C@]43C)[C@@H]12 [Betulin-3-caffeate]
[8]
  sensitivity of E. coli: sensitive
  Active against: E. coli
[7]
  active against at least one strain of bacteria in the assays above: active against at least one strain of bacteria

## C=C(C)[C@@H]1CC[C@]2(COC(=O)[C@@H](N)C(C)C)CC[C@]3(C)[C@H](CC[C@@H]4[C@@]5(C)CC[C@H](OC(=O)[C@@H](N)C(C)C)C(C)(C)[C@@H]5CC[C@]43C)[C@@H]12 [Betulin-3,28-Di-L-valine ester, Betulin-3,28-di-L-valine]
[1]; Example 34, 10 mg/ml in DMSO
  sensitivity of S. aureus: sensitive
[1]
  Active against: S. aureus
[7]
  active against at least one strain of bacteria in the assays above: active against at least one strain of bacteria

## C=C(C)[C@@H]1CC[C@]2(COC(=O)CN)CC[C@]3(C)[C@H](CC[C@@H]4[C@@]5(C)CC[C@H](OC(=O)CN)C(C)(C)[C@@H]5CC[C@]43C)[C@@H]12 [Betulin 3,28-diglycine, Betulin-3,28-diglycine]
[8]; [14]
  Zone of inhibition Escherichia coli: 0 mm
[8]
  sensitivity of E. coli: sensitive
  Active against: E. coli
[1]; [14]
  Zone of inhibition Staphylococcus aureus: 0 mm
[9]; [14]
  Zone of inhibition Bacillus subtilis: 0 mm
[7]
  active against at least one strain of bacteria in the assays above: active against at least one strain of bacteria

## Gentamicin [reference compound]
[1]; [12]
  Zone of inhibition (mm) against S. aureus: 0.1 mm
[2]; [12]
  Zone of inhibition (mm) against S. epiderm.: 0 mm
[3]; [12]
  Zone of inhibition (mm) against E. faecalis: 0 mm

## O=C(N[C@H](CO)[C@H](O)c1ccc([N+](=O)[O-])cc1)C(Cl)Cl [Chloramphenicol, reference compound]
[1]; [12]
  Zone of inhibition (mm) against S. aureus: 2.6 mm
[2]; [12]
  Zone of inhibition (mm) against S. epiderm.: 0.5 mm
[3]; [12]
  Zone of inhibition (mm) against E. faecalis: 1.25 mm

## C=C(C)C1CCC2(COC(=O)COCC(=O)O)CCC3(C)C(CCC4C5(C)CCC(O)C(C)(C)C5CCC43C)C12 (centres unmarked) [Betulin-28-diglycolate]
[8]
  sensitivity of E. coli: sensitive
  Active against: E. coli
[7]
  active against at least one strain of bacteria in the assays above: active against at least one strain of bacteria

## C[C@H]1[C@H](C)CC[C@]2(C(=O)O)CC[C@]3(C)C(=CC[C@@H]4[C@@]5(C)CC[C@H](O)C(C)(C)[C@@H]5CC[C@]43C)[C@H]12 [Ursolic Acid]
[8]; Escherichia coli, 125 ng/ml in water, 100 μl on 10 mm disk, 18 hours 37° C., read-out: Zone of inhibition Escherichia coli
  zone of inhibition at 0.125 µg/mL: 0 mm
[1]; Staphylococcus aureus, 125 ng/ml in water, 100 μl on 10 mm disk, 18 hours 37° C., read-out: Zone of inhibition Staphylococcus aureus
  zone of inhibition at 0.125 µg/mL: 0 mm
[9]; Bacillus subtilis, 125 ng/ml in water, 100 μl on 10 mm disk, 18 hours 37° C., read-out: Zone of inhibition Bacillus subtilis
  zone of inhibition at 0.125 µg/mL: 0 mm

## C=C(C)C1CCC2(COC(=O)CCC(=O)O)CC[C@@]3(C)C(CCC4[C@@]5(C)CCC(O)C(C)(C)C5CC[C@]43C)C12 (some centres unmarked) [Betulin 28-succinate, Betulin-28-succinate]
[8]; Escherichia coli, 1 mg/ml in DMSO, 100 μl on 10 mm disk, 18 hours 37° C.
  zone of inhibition at 1000 µg/mL: 0 mm
[1]; Staphylococcus aureus, 1 mg/ml in DMSO, 100 μl on 10 mm disk, 18 hours 37° C.
  zone of inhibition at 1000 µg/mL: 0 mm
[9]; Bacillus subtilis, 1 mg/ml in DMSO, 100 μl on 10 mm disk, 18 hours 37° C.
  zone of inhibition at 1000 µg/mL: 0 mm

## C=C(C)[C@@H]1CC[C@]2(COC(=O)[C@@H]3CCCN3)CC[C@]3(C)[C@H](CC[C@@H]4[C@@]5(C)CC[C@H](OC(=O)[C@@H]6CCCN6)C(C)(C)[C@@H]5CC[C@]43C)[C@@H]12 [Betulin Di-(L-proline) ester]
[8]; [14]
  Zone of inhibition Escherichia coli: 0 mm
[1]; [14]
  Zone of inhibition Staphylococcus aureus: 0 mm
[9]; [14]
  Zone of inhibition Bacillus subtilis: 0 mm

Reference: patent publication US6689767B2, “Triterpenes having antibacterial activity” (Regents of the University of Minnesota, priority 2000, dated 2004)
